Source: US10072023B2, “Diarylethene compounds and uses thereof” (SWITCH MATERIALS, INC., priority 2011, dated 2018)

Tests used:
[1] = Absorbance at photostationary state (PSS) under simulated sunlight or 365 nm light; assay type: physicochemical; parameters: λ max: unit not given here; conditions: for Absorbance at PSS, 365 nm: 365 nm light source; for Absorbance at PSS, 365 nm / Absorbance at PSS, full / Absorbance at PSS, +UV / λ max: 2.0×10^−5 M in triglyme; for sensitivity index: ratio of PSS under 365 nm light to PSS under full spectrum light (without UV blocking film); for Absorbance at PSS, full: simulated sunlight (QSUN solar simulator), no UV blocking film; for Absorbance at PSS, +UV: simulated sunlight with UV blocking film (cutoff 370 nm); for λ max: wavelength of maximum absorbance in the visible range, ring-closed isoform
Method in brief: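 Compounds at 2.0×10^−5 M in triglyme, photofaded with visible light, then irradiated with simulated sunlight (xenon arc) or 365 nm light until the UV/Vis spectrum stabilized. Also irradiated through a UV-blocking film (370 nm cutoff); sensitivity index is PSS under 365 nm divided by PSS under full spectrum.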

[2] = Solubility in indicated solvent; assay type: physicochemical; conditions: % wt soluble in triglyme
Excerpt: A compound with greater solubility allows for a formulation or material with a greater concentration of coloured molecule to be incorporated into a composition. This may allow for increasing the contrast ratio for a compound with a lesser absorbance at PSS. Inclusion of a solubilizing group in a compound according to various embodiments of the invention may increase solubility. Examples of solubilizing groups may include alkoxy or siloxy groups.

Compound	Absorbance at PSS, 365 nm [1]	sensitivity index [1]	Absorbance at PSS, full [1]	Absorbance at PSS, +UV [1]	λ max [1]	Solubility [2]
Cc1c(-c2ccccc2)sc(-c2ccccc2)c1C1=C(c2c(-c3ccccc3)sc(-c3ccccc3)c2C)C(F)(F)C(F)(F)C1(F)F [S017, 4,4′-(perfluorocyclopent-1-ene-1,2-diyl)bis(3-methyl-2,5-diphenylthiophene)]	0.049	5.44	0.009	0.0025	605	1 % wt
COc1ccc(-c2cc(C3=C(c4cc(-c5ccc(OC)s5)sc4-c4ccc(OC)s4)C(F)(F)C(F)(F)C3(F)F)c(-c3ccc(OC)s3)s2)s1 [S020, 3′,3″″-(perfluorocyclopent-1-ene-1,2-diyl)bis(5,5″-dimethoxy-2,2′:5′,2″-terthiophene)]	0.244	2.12	0.115	0.085	665	3 % wt
c1ccc(-c2nc(-c3nc(-c4ccccc4)sc3-c3nc(-c4ccccc4)sc3-c3ccccc3)c(-c3ccccc3)s2)cc1 [S032, 2,2′,2″,5,5″-pentaphenyl-4,4′:5′,4″-terthiazole]	0.594	18.56	0.032	0.008	600	1 % wt
Cc1cc(-c2sc(C)c(C)c2C2=C(c3c(-c4cc(C)c(C)s4)sc(C)c3C)C(F)(F)C(F)(F)C2(F)F)sc1C [S039, 3,3′-(perfluorocyclopent-1-ene-1,2-diyl)bis(4,4′,5,5′-tetramethyl-2,2′-bithiophene)]	0.372	7.75	0.048	0.028	570	2 % wt
FC(F)(F)c1ccc(-c2cc(C3=C(c4cc(-c5ccc(C(F)(F)F)cc5)sc4-c4ccc(C(F)(F)F)cc4)C(F)(F)C(F)(F)C3(F)F)c(-c3ccc(C(F)(F)F)cc3)s2)cc1 [S044, 3,3′-(perfluorocyclopent-1-ene-1,2-diyl)bis(2,5-bis(4-(trifluoromethyl)phenyl)thiophene)]	0.222	3.58	0.062	0.027	605	1 % wt
CC(C)(C)c1ccc(-c2cc(C3=C(c4cc(-c5ccc(C(C)(C)C)cc5)sc4-c4cccs4)C(F)(F)C(F)(F)C3(F)F)c(-c3cccs3)s2)cc1 [S049, 3,3″-(perfluorocyclopent-1-ene-1,2-diyl)bis(5-(4-(tert-butyl)phenyl)-2,2′-bithiophene)]	0.217	2.49	0.087	0.044	625	2 % wt
CC(C)(C)c1ccc(-c2sc(-c3cccs3)cc2C2=C(c3cc(-c4cccs4)sc3-c3ccc(C(C)(C)C)cc3)C(F)(F)C(F)(F)C2(F)F)cc1 [S052, 4,4″-(perfluorocyclopent-1-ene-1,2-diyl)bis(5-(4-(tert-butyl)phenyl)-2,2′-bithiophene)]	0.318	1.54	0.206	0.116	630	1 % wt
COc1ccc(-c2cc(C3=C(c4cc(-c5ccc(OC)cc5)sc4-c4ccc(OC)cc4)C(F)(F)C(F)(F)C3(F)F)c(-c3ccc(OC)cc3)s2)cc1 [S054, 3,3′-(perfluorocyclopent-1-ene-1,2-diyl)bis(2,5-bis(4-methoxyphenyl)thiophene)]	0.268	2.53	0.106	0.056	630	5-6 % wt
CC(C)(C)c1ccc(-c2sc(-c3ccccc3)cc2C2=C(c3cc(-c4ccccc4)sc3-c3ccc(C(C)(C)C)cc3)C(F)(F)C(F)(F)C2(F)F)cc1 [S057, 3,3′-(perfluorocyclopent-1-ene-1,2-diyl)bis(2-(4-tert-butylphenyl)-5-phenylthiophene)]	0.204	2.58	0.079	0.033	610	1.5 % wt
CC(C)(C)c1ccc(-c2sc(-c3ccc(Cl)cc3)cc2C2=C(c3cc(-c4ccc(Cl)cc4)sc3-c3ccc(C(C)(C)C)cc3)C(F)(F)C(F)(F)C2(F)F)cc1 [S060]	0.22	2.06	0.107	0.038	615	1 % wt
CC(C)(C)c1ccc(-c2sc(-c3ccc(C4(C)OCCO4)cc3)cc2C2=C(c3cc(-c4ccc(C5(C)OCCO5)cc4)sc3-c3ccc(C(C)(C)C)cc3)C(F)(F)C(F)(F)C2(F)F)cc1 [S066, 2,2′-((4,4′-(perfluorocyclopent-1-ene-1,2-diyl)bis(5-(4-(tert-butyl)phenyl)thiophene-4,2-diyl))bis(4,1-phenylene))bis(2-methyl-1,3-dioxolane)]	0.226	2.28	0.099	0.049	615	2.5 % wt
COCCOCCOCCOC(C)(C)c1ccc(-c2cc(C3=C(c4cc(-c5ccc(C(C)(C)OCCOCCOCCOC)cc5)sc4-c4ccc(C(C)(C)C)cc4)C(F)(F)C(F)(F)C3(F)F)c(-c3ccc(C(C)(C)C)cc3)s2)cc1 [S068, 12,12′-((4,4′-(perfluorocyclopent-1-ene-1,2-diyl)bis(5-(4-(tert-butyl)phenyl)thiophene-4,2-diyl))bis(4,1-phenylene))bis(12-methyl-2,5,8,11-tetraoxatridecane)]	0.239	2.15	0.111	0.051	615	>20 % wt
c1ccc(-c2nc(-c3cc(-c4cccs4)sc3-c3cccs3)c(-c3cc(-c4cccs4)sc3-c3cccs3)s2)cc1 [S075]	0.302	3.82	0.079	0.031	670	1 % wt
CCCCCCCCc1ccc(-c2oc3ccccc3c2C2=C(c3c(-c4ccc(CCCCCCCC)cc4)oc4ccccc34)C(F)(F)C(F)(F)C2(F)F)cc1 [S079, 1,2-bis(2-(4-n-octylphenyl)-1-benzofuran-3-yl)perfluorocyclopentene]	0.17	7.39	0.023	0.008	490	8-11 % wt
COc1cccc(-c2cc(C3=C(c4cc(-c5cccc(OC)c5)sc4-c4cccc(OC)c4)C(F)(F)C(F)(F)C3(F)F)c(-c3cccc(OC)c3)s2)c1 [S096, 3,3′-(perfluorocyclopent-1-ene-1,2-diyl)bis(2,5-bis(3-methoxyphenyl)thiophene)]	0.183	4.07	0.045	0.014	609	15 % wt
